Entries after “also recorded” stand apart in the source; their conditions may differ.
Tests used:
[1] = target: T1, CXCR3 (Homo sapiens, UniProt P49682); experiment: β-arrestin 2 recruitment with concomitant incubation of FAUC1036 and chemokine; format: cell-based
T1 construct: expressed in transfected cells; host or cells: HEK293 / HEK293T cells, stably transfected; membrane preparations
T1 sequence (P49682 1-368): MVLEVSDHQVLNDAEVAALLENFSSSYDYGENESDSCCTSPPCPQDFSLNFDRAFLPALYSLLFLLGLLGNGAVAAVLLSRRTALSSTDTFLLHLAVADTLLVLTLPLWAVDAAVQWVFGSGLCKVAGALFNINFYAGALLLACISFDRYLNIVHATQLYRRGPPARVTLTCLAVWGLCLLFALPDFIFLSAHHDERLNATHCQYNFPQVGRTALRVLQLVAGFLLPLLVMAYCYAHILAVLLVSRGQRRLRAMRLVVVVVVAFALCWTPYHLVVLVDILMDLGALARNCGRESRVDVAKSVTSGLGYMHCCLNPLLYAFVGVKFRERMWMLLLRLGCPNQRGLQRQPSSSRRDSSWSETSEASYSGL
Description: β-arrestin 2 recruitment assay: The measurement of β-arrestin recruitment was performed utilizing the PathHunter assay purchased from DiscoveRx (DiscoveRx, Birmingham, U.K.) according to the manufacturer's protocol. HEK293 cells stably expressing β-gal enzyme acceptor were transiently transfected with the ProLink (PK1) tagged wildtype CXCR3 receptor using the TransIT-293 transfection reagent from Mirus (purchased from MoBiTec, Goettingen, Germany). The assay was carried out in 384-well plates containing 2000 cells in 20 µL. After incubation at 37°C (5% CO2, 95% relative humidity) overnight, various concentrations of test compounds or CXCL11 (prepared in PBS, pH 7.4, containing 0.20% BSA) were added and the incubation continued for 4 h. Detection mix was then added and incubated for further 60 min at room temperature. Chemiluminescence was determined with a microplate reader Clariostar (BMG labtech, Ortenberg, Germany).
The effect of the β-arrestin 2 biased allosteric agonist FAUC1036 on the CXCL11 and CXCL10-induced β-arrestin 2 recruitment was estimated in a series of experiments where the HEK293T cells expressing CXCR3 were concomitantly incubated with FAUC1036 and chemokines CXCL11 or CXCL10 (Figure 3). […] These observations imply that FAUC1036 behaves as a functional negative allosteric modulator (NAM) in the presence of endogenous agonists in the β-arrestin 2 pathway.

[2] = target: T2, CXCR3-eGFP (Homo sapiens, UniProt P49682); experiment: Receptor internalization imaging (confocal laser scanning microscopy); format: cell-based; conditions: CXCL11 10 nM; FAUC1036 10 µM and 1 µM; one hour; Figure 4A
T2 construct: expressed in transfected cells; host or cells: HEK293T cells, transient
T2 sequence (P49682 1-368): T1 sequence (P49682 1-368)
Description: Receptor internalization imaging: The day before transfection HEK293T cells were seeded in 6-well plates at a density of 200,000 cells/well. Transient transfection of the C-terminally eGFP-tagged CXCR3 cDNA was performed using TransIT293(MIRUS). Cells were transferred to Poly-L-Lysine coated glass coverslips 24 h after transfection. 2 d after transfection, cells were washed with phosphate buffered saline (PBS) and treated with the endogenous chemokine CXCL11 or compound FAUC1036 at 37°C in 5% CO2 for 60min. Cells were fixed with 4% paraformaldehyde (RotiHistofix, Carl Roth) for 10min. […]
The effect of FAUC1036 on receptor internalization was investigated by scanning laser confocal microscopy and ELISA-based assay. […] The quantification of receptor internalization upon the treatment with the endogenous agonists and with either β-arrestin 2 biased FAUC1036 or G-protein biased FAUC1104 was performed with ELISA based assay. The HEK293T cells transiently expressing FLAG-CXCR3 were stimulated with compounds and chemokines for one hour, washed, fixed and the amount of FLAG-CXCR3 present on the surface was detected by anti-FLAG antibody.

## CC(C)(C)OC(=O)N[C@@H](CCCCNC(=O)[C@@H]1Cc2ccccc2CN1C(=O)CCC(=O)c1ccccc1)C(=O)NCC(c1ccccc1)c1ccccc1 [Compound 11, Tert-butyl ((S)-1-((2,2-diphenylethyl)amino)-1-oxo-6-((S)-2-(4-oxo-4-phenylbutanoyl)-1,2,3,4-tertahydroisoquinoline-3-carboxamido)hexan-2-yl)carbamate]
[1]; in the presence of CXCL10 (Figure 3B)
  influence on the efficacy of CXCL10-induced β-arrestin 2 recruitment: noticeable effect on the efficacy
[1]; in the presence of CXCL11 (Figure 3A)
  influence on the efficacy of CXCL11-induced β-arrestin 2 recruitment: had not influence on the efficacy
[2]
  CXCR3 internalization (confocal microscopy): induced the CXCR3 internalization; also recorded: led to the internalization of a significant portion of the receptors

— patent EP3156398A1, “AGONISTS OF THE CHEMOKINE RECEPTOR CXCR3” (Friedrich-Alexander-Universität Erlangen-Nürnberg, priority 2015, dated 2017)
